Test results: the supplement of paper PMC10307832

Tests used:
Assay in all cases: relative viability (nuclei count vs DMSO), 5 days (fraction); higher = more cells survive
Fedratinib + Crizotinib = compound: Cc1cnc(Nc2ccc(OCCN3CCCC3)cc2)nc1Nc1cccc(S(=O)(=O)NC(C)(C)C)c1 [Fedratinib] + C[C@@H](Oc1cc(-c2cnn(C3CCNCC3)c2)cnc1N)c1c(Cl)ccc(F)c1Cl [Crizotinib] (partner 1 µM)
Outline: (§1)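 Values are medians from duplicate plates. Each reflects relative viability, defined as the nuclei count of treated wells over that of vehicle wells. Lung cancer cell lines in 1536-well plates were pin-tool dosed one day after seeding with one drug alone or with a fixed anchor-drug dose plus five library-drug doses (not always all listed) in √10 steps, then fixed, stained and imaged at 4× after 5 days.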

Fedratinib + Decitabine = compound: Cc1cnc(Nc2ccc(OCCN3CCCC3)cc2)nc1Nc1cccc(S(=O)(=O)NC(C)(C)C)c1 [Fedratinib] + Nc1ncn([C@H]2C[C@H](O)[C@@H](CO)O2)c(=O)n1 [Decitabine] (partner 2 µM)
Outline: as §1

GW-2580 + Palbociclib = compound: COC1=CC=C(C=C1)COC2=C(C=C(C=C2)CC3=CN=C(N=C3N)N)OC [GW-2580] + CC(=O)c1c(C)c2cnc(Nc3ccc(N4CCNCC4)cn3)nc2n(C2CCCC2)c1=O [Palbociclib] (partner 0.5 µM)
Outline: as §1

GW-2580 + Bortezomib = compound: COC1=CC=C(C=C1)COC2=C(C=C(C=C2)CC3=CN=C(N=C3N)N)OC [GW-2580] + CC(C)C[C@H](NC(=O)[C@H](Cc1ccccc1)NC(=O)c1cnccn1)B(O)O [Bortezomib] (partner 0.002 µM)
Outline: as §1

GW-2580 + AZD7762 = compound: COC1=CC=C(C=C1)COC2=C(C=C(C=C2)CC3=CN=C(N=C3N)N)OC [GW-2580] + NC(=O)Nc1cc(-c2cccc(F)c2)sc1C(=O)N[C@H]1CCCNC1 [AZD7762] (partner 0.2 µM)
Outline: as §1

| Cell Line | relative viability (Fedratinib + Crizotinib; first compound 0.1 µM) | relative viability (Fedratinib + Crizotinib; first compound 0.3162 µM) | relative viability (Fedratinib + Crizotinib; first compound 1 µM) | relative viability (Fedratinib + Decitabine; first compound 0.1 µM) | relative viability (Fedratinib + Decitabine; first compound 0.3162 µM) | relative viability (Fedratinib + Decitabine; first compound 1 µM) | relative viability (GW-2580 + Palbociclib; first compound 0.08 µM) | relative viability (GW-2580 + Palbociclib; first compound 0.8 µM) | relative viability (GW-2580 + Palbociclib; first compound 2.53 µM) | relative viability (GW-2580 + Palbociclib; first compound 8 µM) | relative viability (GW-2580 + Bortezomib; first compound 0.08 µM) | relative viability (GW-2580 + Bortezomib; first compound 0.8 µM) | relative viability (GW-2580 + Bortezomib; first compound 2.53 µM) | relative viability (GW-2580 + Bortezomib; first compound 8 µM) | relative viability (GW-2580 + AZD7762; first compound 0.08 µM) | relative viability (GW-2580 + AZD7762; first compound 0.8 µM) | relative viability (GW-2580 + AZD7762; first compound 2.53 µM) | relative viability (GW-2580 + AZD7762; first compound 8 µM) |
| --- | --- | --- | --- | --- | --- | --- | --- | --- | --- | --- | --- | --- | --- | --- | --- | --- | --- | --- |
| NCI-H2126 | 1.01 | 0.989 | 0.996 | 0.532 | 0.596 | 0.605 | 0.352 | 0.365 | 0.335 | 0.356 | 1.14 | 1.24 | 1.03 | 1.14 | 1.06 | 1.02 | 0.942 | 1.03 |
| LXF-289 | 0.81 | 0.79 | 0.804 | 0.36 | 0.338 | 0.378 | 0.616 | 0.64 | 0.599 | 0.602 | 1 | 1.06 | 0.93 | 0.916 | 1.17 | 1.2 | 1.07 | 1.06 |
| NCI-H2405 | 0.796 | 0.849 | 0.818 | 0.729 | 0.725 | 0.663 | 0.512 | 0.546 | 0.463 | 0.49 | 1.02 | 1.03 | 0.807 | 0.951 | 0.793 | 0.712 | 0.703 | 0.581 |
| NCI-H1755 | 0.858 | 0.862 | 0.802 | 0.662 | 0.723 | 0.664 | 0.458 | 0.422 | 0.455 | 0.41 | 1.03 | 1.1 | 0.883 | 0.852 | 0.483 | 0.486 | 0.448 | 0.405 |
| HCC-78 | 0.346 |  | 0.305 | 0.693 | 0.73 | 0.705 | 0.459 | 0.522 |  | 0.5 | 0.457 | 0.422 | 0.353 | 0.465 | 0.637 | 0.663 | 0.564 | 0.589 |
| LOU-NH91 | 0.701 | 0.764 | 0.75 | 0.756 | 0.798 | 0.785 | 0.516 | 0.514 | 0.505 | 0.54 | 0.522 | 0.534 | 0.468 | 0.46 | 0.862 | 0.677 | 0.743 | 0.794 |
| NCI-H3122 | 0.317 | 0.235 | 0.265 | 0.392 | 0.417 | 0.403 | 0.207 | 0.199 | 0.189 | 0.195 | 1.04 | 0.939 | 1.1 | 1.11 | 1.01 | 1.02 | 1.06 | 1 |
| HCC-827 | 0.985 | 0.963 | 0.953 | 0.292 | 0.336 | 0.318 | 0.571 | 0.531 | 0.479 | 0.467 | 0.964 | 1.12 | 1.01 | 0.952 | 0.207 | 0.244 | 0.201 | 0.214 |
| NCI-H1975 | 0.802 | 0.928 | 0.663 | 0.372 | 0.315 | 0.343 | 0.738 | 0.944 | 0.524 | 0.586 | 0.373 | 0.368 | 0.317 | 0.366 | 0.829 | 0.805 | 0.598 | 0.815 |
